Where two headings read alike, the source gives them in different places.
Assays:
Assay type in all cases: cell-based
Target C CJ mRNA = test: Gene panel canonical junction qPCR assay, Target C; conditions: decrease in CJ mRNA levels, gene panel; read-out: Target C IC50
Method in brief: (§1)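 A673 or K562 cells were treated for 24 h at 37 °C with an 11-point 3-fold dilution, top dose 10 uM, DMSO ≤0.25%. Canonical junction mRNA in lysates was quantified by one-step RT-qPCR and normalized to GAPDH, GUSB or PPIA.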

SMN2 CJ mRNA = test: Gene panel canonical junction qPCR assay, SMN2; conditions: decrease in CJ mRNA levels, gene panel; read-out: SMN2 IC50
Method in brief: as §1

HTT mRNA = test: Splicing assay (RT-qPCR) monitoring HTT canonical junction (CJ) and alternative junction (AJ) mRNA isoforms; conditions: A673 or K562 cells, 24 h treatment, top dose 10 uM
Method in brief: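 A673 or K562 cells treated 24 h at 37 °C with an 11-point 3-fold dilution (top 10 uM final, DMSO ≤0.25%). Lysates assayed by one-step RT-qPCR for HTT CJ and AJ isoforms, normalized to GAPDH, GUSB (K562) or PPIA (A673).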

HTT CJ mRNA = test: Gene panel canonical junction qPCR assay, HTT; conditions: decrease in CJ mRNA levels, gene panel; read-out: HTT IC50
Method in brief: as §1

[1] = decrease in CJ mRNA (50% response), read-out: HTT CJ AC50
[2] = increase in AJ mRNA (50% response), read-out: HTT AJ AC50

SMILES	IC50 (Target C CJ mRNA)	IC50 (SMN2 CJ mRNA)	IC50 (HTT CJ mRNA)	AC50 (HTT mRNA; [1])	AC50 (HTT mRNA; [2])
Cc1cn2nc(-c3ccc4c(=O)n(C5CCNCC5)ncc4c3)cc2c(C)n1 [Compound 260]	1000 to 10000 nM	100 to 1000 nM	100 to 1000 nM	100 to 1000 nM	100 to 1000 nM
O=c1c2ccc(-c3cn[nH]c3)cc2cnn1C1CCNCC1 [Compound 261]	> 10000 nM	1000 to 10000 nM	> 10000 nM	> 10000 nM	> 10000 nM
Cc1cn2cc(-c3ccc4c(=O)n(C5CCNCC5)ncc4c3)cc(C(F)(F)F)c2n1 [Compound 262]	1000 to 10000 nM	< 100 nM	1000 to 10000 nM	1000 to 10000 nM	1000 to 10000 nM
Cn1cc2ccc(-c3ccc4c(=O)n(C5CCNCC5)ncc4c3)cc2n1 [Compound 263]	> 10000 nM	> 10000 nM	> 10000 nM	> 10000 nM	> 10000 nM
Cc1cn2nc(-c3ccc4c(=O)n(C5CCNC5)ncc4c3)cc(C)c2n1 (stereo not shown) [Compound 264, 6-{2,8-dimethylimidazo[1,2-b]pyridazin-6-yl}-2-(pyrrolidin-3-yl)phthalazin-1-one]	> 10000 nM	100 to 1000 nM	1000 to 10000 nM	1000 to 10000 nM	1000 to 10000 nM
Cc1cn2nc(-c3ccc4c(=O)n(C5CCN(C)CC5)ncc4c3)cc(C)c2n1 [Compound 265]	100 to 1000 nM	< 100 nM	< 100 nM	< 100 nM	< 100 nM
CCN1CCC(n2ncc3cc(-c4cc(C)c5nc(C)cn5n4)ccc3c2=O)CC1 [Compound 266]	100 to 1000 nM	< 100 nM	< 100 nM	< 100 nM	< 100 nM
Cc1cn2nc(-c3ccc4c(c3)CCN(C3CCNC(C)(C)C3)C4=O)cc(C)c2n1 (stereo not shown) [Compound 267]	1000 to 10000 nM	< 100 nM	1000 to 10000 nM	1000 to 10000 nM	100 to 1000 nM
Cc1cn2nc(-c3ccc4c(c3)CCN(C3CCN(C)CC3)C4=O)cc(C)c2n1 [Compound 268]	> 10000 nM	< 100 nM	1000 to 10000 nM	1000 to 10000 nM	1000 to 10000 nM
Cc1cn2nc(-c3ccc4c(c3)CCN(C3CCNC3)C4=O)cc(C)c2n1 (stereo not shown) [Compound 269, 6-{2,8-dimethylimidazo[1,2-b]pyridazin-6-yl}-2-(pyrrolidin-3-yl)-3,4-dihydroisoquinolin-1-one]	> 10000 nM	1000 to 10000 nM	> 10000 nM	> 10000 nM	> 10000 nM

Continued, in another order:

IC50 (Target C CJ mRNA)	IC50 (SMN2 CJ mRNA)	IC50 (HTT CJ mRNA)	SMILES	AC50 (HTT mRNA; [1])	AC50 (HTT mRNA; [2])
> 10000 nM	100 to 1000 nM	1000 to 10000 nM	CCN1CCC(N2CCc3cc(-c4cc(C)c5nc(C)cn5n4)ccc3C2=O)CC1 [Compound 270]	1000 to 10000 nM	1000 to 10000 nM
1000 to 10000 nM	100 to 1000 nM	1000 to 10000 nM	Cc1cn2nc(-c3ccc4c(=O)n(C5CCN(C)C5)ncc4c3)cc(C)c2n1 (stereo not shown) [Compound 271, 6-{2,8-dimethylimidazo[1,2-b]pyridazin-6-yl}-2-(1-methylpyrrolidin-3-yl)phthalazin-1-one]	1000 to 10000 nM	1000 to 10000 nM
100 to 1000 nM	< 100 nM	< 100 nM	Cc1cn2nc(-c3ccc4c(=O)n([C@@H]5CCN[C@H](C)C5)ncc4c3)cc(C)c2n1 [Compound 272]	< 100 nM	100 to 1000 nM
< 100 nM	< 100 nM	< 100 nM	Cc1cn2nc(-c3ccc4c(=O)n(C5CCNC6(CC6)C5)ncc4c3)cc(C)c2n1 (stereo not shown) [Compound 274]	< 100 nM	< 100 nM
< 100 nM	< 100 nM	< 100 nM	Cc1cn2cc(-c3ccc4c(=O)n(C5CCNCC5)ccc4c3)cc(F)c2n1 [Compound 276, 6-(8-fluoro-2-methylimidazo[1,2-a]pyridin-6-yl)-2-(piperidin-4-yl)isoquinolin-1(2H)-one]	< 100 nM	< 100 nM
1000 to 10000 nM	< 100 nM	100 to 1000 nM	Cc1cn2nc(-c3ccc4c(=O)n([C@@H]5CCN(C)[C@H](C)C5)ncc4c3)cc(C)c2n1 [Compound 277]	100 to 1000 nM	100 to 1000 nM
100 to 1000 nM	< 100 nM	< 100 nM	Cc1cn2nc(-c3ccc4c(=O)n([C@H]5CCN(C)[C@H](C)C5)ncc4c3)cc(C)c2n1 [Compound 278]	< 100 nM	< 100 nM

Reference: patent US20230159496A1, “COMPOUNDS AND METHODS FOR MODULATING SPLICING” (REMIX THERAPEUTICS INC., priority 2020, published 2023)
